Measurements from publication PMC7940609, “Hyperproduction of 3-hydroxypropionate by Halomonas bluephagenesis” (Nature Communications, 2021).

What was measured:
AldDPp = biological target: T1, AldDPp (Pseudomonas putida, UniProt Q88QE9); assay: specific activity, NADH formation; type: biochemical; details: 2.0 mM 3HPA, 2.0 mM NAD+, 100 mM potassium phosphate pH 8.0, 1 mM DTT, 37 °C
T1 construct: gene aldB-I; N-terminal His-tag (plasmid p98), expressed in and purified from H. bluephagenesis TDΔdddA
T1 sequence (Q88QE9 1-506): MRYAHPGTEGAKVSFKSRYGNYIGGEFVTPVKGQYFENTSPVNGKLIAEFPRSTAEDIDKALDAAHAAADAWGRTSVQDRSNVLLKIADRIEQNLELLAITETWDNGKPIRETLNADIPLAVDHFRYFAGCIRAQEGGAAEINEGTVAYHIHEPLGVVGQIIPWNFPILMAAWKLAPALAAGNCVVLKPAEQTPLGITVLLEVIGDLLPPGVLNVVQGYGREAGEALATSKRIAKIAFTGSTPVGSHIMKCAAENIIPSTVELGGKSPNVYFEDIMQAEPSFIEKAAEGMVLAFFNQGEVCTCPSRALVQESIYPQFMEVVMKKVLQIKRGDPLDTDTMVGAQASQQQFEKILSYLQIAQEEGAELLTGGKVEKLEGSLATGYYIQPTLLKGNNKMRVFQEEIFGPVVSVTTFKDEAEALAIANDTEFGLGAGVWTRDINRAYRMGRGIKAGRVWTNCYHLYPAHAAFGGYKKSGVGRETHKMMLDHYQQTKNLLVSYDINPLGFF

AldH = biological target: T2, AldH (Escherichia coli, UniProt P23883); assay: specific activity, NADH formation; type: biochemical; details: 2.0 mM 3HPA, 2.0 mM NAD+, 100 mM potassium phosphate pH 8.0, 1 mM DTT, 37 °C
T2 construct: gene puuC; N-terminal His-tag (plasmid p99), expressed in and purified from H. bluephagenesis TDΔdddA
T2 sequence (P23883 1-495): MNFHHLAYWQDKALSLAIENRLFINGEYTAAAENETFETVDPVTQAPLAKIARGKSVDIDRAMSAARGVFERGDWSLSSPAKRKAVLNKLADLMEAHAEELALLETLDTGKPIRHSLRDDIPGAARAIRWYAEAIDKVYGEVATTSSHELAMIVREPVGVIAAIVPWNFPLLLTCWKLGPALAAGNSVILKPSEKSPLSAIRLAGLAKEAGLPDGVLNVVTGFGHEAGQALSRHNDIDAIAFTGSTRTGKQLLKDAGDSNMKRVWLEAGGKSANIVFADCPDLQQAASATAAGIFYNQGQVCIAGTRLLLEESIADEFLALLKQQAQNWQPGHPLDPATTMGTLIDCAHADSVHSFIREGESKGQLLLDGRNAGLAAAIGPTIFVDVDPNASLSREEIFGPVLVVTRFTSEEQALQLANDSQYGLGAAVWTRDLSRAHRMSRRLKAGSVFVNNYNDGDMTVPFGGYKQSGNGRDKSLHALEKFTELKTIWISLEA

PuuC = biological target: T3, PuuC (Klebsiella pneumoniae, UniProt A0A378BL98); assay: specific activity, NADH formation; type: biochemical; details: 2.0 mM 3HPA, 2.0 mM NAD+, 100 mM potassium phosphate pH 8.0, 1 mM DTT, 37 °C
T3 construct: N-terminal His-tag (plasmid p100), expressed in and purified from H. bluephagenesis TDΔdddA
T3 sequence (A0A378BL98 1-495): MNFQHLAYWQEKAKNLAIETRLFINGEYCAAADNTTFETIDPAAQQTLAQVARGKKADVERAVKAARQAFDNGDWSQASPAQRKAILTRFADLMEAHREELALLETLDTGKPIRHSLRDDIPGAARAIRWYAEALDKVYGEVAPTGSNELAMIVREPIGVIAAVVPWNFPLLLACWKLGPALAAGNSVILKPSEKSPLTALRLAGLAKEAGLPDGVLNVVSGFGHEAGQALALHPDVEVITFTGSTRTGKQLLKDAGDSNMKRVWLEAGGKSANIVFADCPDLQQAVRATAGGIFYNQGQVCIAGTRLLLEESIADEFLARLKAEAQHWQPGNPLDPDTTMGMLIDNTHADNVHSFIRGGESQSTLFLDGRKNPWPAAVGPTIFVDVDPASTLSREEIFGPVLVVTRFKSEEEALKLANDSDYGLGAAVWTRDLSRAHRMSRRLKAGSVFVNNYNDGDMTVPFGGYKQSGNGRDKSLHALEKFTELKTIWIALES

DhaTKp = biological target: T4, DhaTKp (Klebsiella pneumoniae, UniProt Q7WRJ3); assay: specific activity, NADH formation; type: biochemical; details: 150 mM 1,3-propanediol, 2 mM NAD+, 100 mM potassium carbonate pH 9.0, 30 mM ammonium sulfate, 37 °C
T4 construct: gene dhaT; C-terminal His-tag (plasmid p95), expressed in and purified from H. bluephagenesis TDΔdddA
T4 sequence (Q7WRJ3 1-387): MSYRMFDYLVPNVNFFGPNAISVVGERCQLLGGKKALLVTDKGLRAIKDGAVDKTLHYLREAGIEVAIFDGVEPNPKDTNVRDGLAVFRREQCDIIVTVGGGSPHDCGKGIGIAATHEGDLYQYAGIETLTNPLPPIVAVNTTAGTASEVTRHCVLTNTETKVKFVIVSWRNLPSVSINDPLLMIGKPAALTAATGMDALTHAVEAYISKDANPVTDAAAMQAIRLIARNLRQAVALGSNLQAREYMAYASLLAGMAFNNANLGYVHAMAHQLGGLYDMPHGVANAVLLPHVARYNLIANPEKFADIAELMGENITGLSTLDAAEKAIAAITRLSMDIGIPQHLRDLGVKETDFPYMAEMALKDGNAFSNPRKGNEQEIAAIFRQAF

DhaTPp = biological target: T5, DhaTPp (Pseudomonas putida, UniProt Q88J46); assay: specific activity, NADH formation; type: biochemical; details: 150 mM 1,3-propanediol, 2 mM NAD+, 100 mM potassium carbonate pH 9.0, 30 mM ammonium sulfate, 37 °C
T5 construct: gene dhaT; C-terminal His-tag (plasmid p92), expressed in and purified from H. bluephagenesis TDΔdddA
T5 sequence (Q88J46 1-394): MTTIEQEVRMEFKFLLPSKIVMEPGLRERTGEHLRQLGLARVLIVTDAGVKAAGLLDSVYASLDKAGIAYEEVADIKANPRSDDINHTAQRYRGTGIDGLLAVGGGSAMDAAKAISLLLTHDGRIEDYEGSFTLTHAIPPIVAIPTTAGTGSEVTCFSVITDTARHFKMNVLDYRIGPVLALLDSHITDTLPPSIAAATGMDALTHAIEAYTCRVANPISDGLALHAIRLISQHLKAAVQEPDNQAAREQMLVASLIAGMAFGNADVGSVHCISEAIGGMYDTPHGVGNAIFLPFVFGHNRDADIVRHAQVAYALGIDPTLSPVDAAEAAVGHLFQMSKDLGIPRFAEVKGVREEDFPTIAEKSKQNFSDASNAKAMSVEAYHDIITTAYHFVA

purified protein = substrate: O=CCCO; assay: purified protein; type: biochemical, Halomonas sp. TD01; details: 2 mM NAD+, 50 mM potassium phosphate pH 8.0, 1.0 mM DTT, 37 °C

O=CCCO [3HPA] was tested, and the “specific activity, NADH formation” value (AldDPp) was “four different aldehyde dehydrogenases (AldDHb, AldDPp, AldH, and PuuC) were analyzed”, the “specific activity, NADH formation” value (AldH) was “four different aldehyde dehydrogenases (AldDHb, AldDPp, AldH, and PuuC) were analyzed” and the “specific activity, NADH formation” value (PuuC) was “four different aldehyde dehydrogenases (AldDHb, AldDPp, AldH, and PuuC) were analyzed”.

For OCCCO [1,3-propanediol], the “specific activity, NADH formation” value (DhaTKp) was “higher than the alcohol dehydrogenase of P. putida DhaTPp and K. pneumoniae DhaTKp” and the “specific activity, NADH formation” value (DhaTPp) was “higher than the alcohol dehydrogenase of P. putida DhaTPp and K. pneumoniae DhaTKp”.

B1: AldDHb (Halomonas sp. TD01) (protein)
chain: MIYANPGDAGSVVSFEKRFGNYIGGEFVPPVNGQYFDNISPVNGQVFCEIPRSSAEDIEKALDAAHKAAPAWGKTSVQERSNILLKIADRLEQNLEMLAVAETWDNGKAVRETLNADIPLAVDHFRYFAGCLRSQEGTAADIDANTVAYHFHEPLGVVGQIIPWNFPILMAAWKLGPALAAGNCVILKPAEQTPASILKVMEVIGDLLPPGVLNVVNGFGAEAGQALATSKRIAKIAFTGSTPVGSHILKCAAENIIPSTVELGGKSPNIYFADIMNAEPTFIDKAVEGLVLAFFNQGEVCTCPSRALIQESMYDEFMAKVVERTKTIKRGNPLDTDVQVGAQASQEQFDKIMSYMDIARDEGAEFLAGGDKESLDDSINGGYYIQPTLLKGNNKMRVFQEEIFGPVVAVTTFKDEEEALAIANDTEFGLGAGVWSRDINVAFRMGRGIQAGRVWTNCYHQYPAHAAFGGYKKSGVGRETHKVALEHYQQTKNLLVSYDINPLGFF
notes: 506 residues, C-terminal His-tag (plasmid p91), expressed in and purified from H. bluephagenesis TDΔdddA
B1 was tested, and the Km (purified protein) was 50 ± 2 µM, the kcat (purified protein) was 3.38 ± 0.09 s⁻¹ and the kcat/Km (purified protein) was 67400 ± 797 M⁻¹ s⁻¹.
